Source: patent publication US5556744A, “Methods and compositions for diagnosing and treating certain HIV infected patients” (The Trustees of the University of Pennsylvania, priority 1994, dated 1996)

Legend:
[1] = tested on: maternal HIV+ sera (antibodies); test: RIA / ELISA binding of maternal HIV+ sera to gp120 and gp41 peptides (Example 3); parameters: species or system human
Summary of the method: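 Maternal sera, diluted 1:50 and 1:500, were bound overnight at 4°C to peptides immobilized at 10 μg/ml (pH 9.6 carbonate) and blocked with 1% BSA. Read-out was ¹²⁵I-labelled anti-human IgG counts or HRP-TMB OD450. Signal with peptide minus without was expressed relative to seronegative serum.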

[2] = tested on: maternal sera (antibodies); test: ELISA peptide-binding of maternal sera (Example 6); parameters: species or system human; settings: for Number of Non-Transmitters which bound to peptide / Percent of Non-Transmitters which bound to peptide: N = 12; for Number of Transmitters which bound to peptide / Percent of Transmitters which bound to peptide: N = 4
Summary of the method: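 HIV-1 envelope peptides averaging 16 amino acids, covering external and transmembrane glycoprotein, were probed by ELISA. Third-trimester maternal sera, classed as transmitter or non-transmitter by child diagnosis, were each run on at least 40 peptides. Values give percent of sera binding a peptide.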

[3] = Serum No. 1, Non-Transmission Group
[4] = Serum No. 2, Non-Transmission Group
[5] = Serum No. 3, Non-Transmission Group
[6] = Serum No. 4, Transmission Group
[7] = Serum No. 5, Transmission Group
[8] = Serum No. 6, Non-Transmission Group
[9] = Serum No. 7, Non-Transmission Group
[10] = Serum No. 8, Non-Transmission Group
[11] = Serum No. 9, Non-Transmission Group
[12] = Serum No. 10, Transmission Group
[13] = Serum No. 11, Non-Transmission Group
[14] = Serum No. 12, Non-Transmission Group
[15] = Serum No. 13, Transmission Group
[16] = Serum No. 14, Transmission Group
[17] = Serum No. 15, Transmission Group
[18] = Serum No. 16, Non-Transmission Group
[19] = Serum No. 17, Non-Transmission Group
[20] = Serum No. 18, Non-Transmission Group
[21] = Serum No. 19, Transmission Group
[22] = Serum No. 20, Non-Transmission Group

NYTSLIHSLIEESQNQ [Peptide 41]
Binding of maternal HIV+ serum to peptide (sera/NHS ratio) [1, 3]: - (specific OD450 or cpm of sera sample binding to peptide divided by the specific OD450 or cpm of NHS sample binding to peptide, which value is less than 2) | Binding of maternal HIV+ serum to peptide (sera/NHS ratio) [1, 4]: - (specific OD450 or cpm of sera sample binding to peptide divided by the specific OD450 or cpm of NHS sample binding to peptide, which value is less than 2) | Binding of maternal HIV+ serum to peptide (sera/NHS ratio) [1, 5]: - (specific OD450 or cpm of sera sample binding to peptide divided by the specific OD450 or cpm of NHS sample binding to peptide, which value is less than 2) | Binding of maternal HIV+ serum to peptide (sera/NHS ratio) [1, 6]: - (specific OD450 or cpm of sera sample binding to peptide divided by the specific OD450 or cpm of NHS sample binding to peptide, which value is less than 2) | Binding of maternal HIV+ serum to peptide (sera/NHS ratio) [1, 7]: - (specific OD450 or cpm of sera sample binding to peptide divided by the specific OD450 or cpm of NHS sample binding to peptide, which value is less than 2) | Binding of maternal HIV+ serum to peptide (sera/NHS ratio) [1, 8]: - (specific OD450 or cpm of sera sample binding to peptide divided by the specific OD450 or cpm of NHS sample binding to peptide, which value is less than 2) | Binding of maternal HIV+ serum to peptide (sera/NHS ratio) [1, 9]: - (specific OD450 or cpm of sera sample binding to peptide divided by the specific OD450 or cpm of NHS sample binding to peptide, which value is less than 2) | Binding of maternal HIV+ serum to peptide (sera/NHS ratio) [1, 10]: - (specific OD450 or cpm of sera sample binding to peptide divided by the specific OD450 or cpm of NHS sample binding to peptide, which value is less than 2) | Binding of maternal HIV+ serum to peptide (sera/NHS ratio) [1, 11]: - (specific OD450 or cpm of sera sample binding to peptide divided by the specific OD450 or cpm of NHS sample binding to peptide, which value is less than 2) | Binding of maternal HIV+ serum to peptide (sera/NHS ratio) [1, 12]: - (specific OD450 or cpm of sera sample binding to peptide divided by the specific OD450 or cpm of NHS sample binding to peptide, which value is less than 2) | Binding of maternal HIV+ serum to peptide (sera/NHS ratio) [1, 13]: - (specific OD450 or cpm of sera sample binding to peptide divided by the specific OD450 or cpm of NHS sample binding to peptide, which value is less than 2) | Binding of maternal HIV+ serum to peptide (sera/NHS ratio) [1, 14]: - (specific OD450 or cpm of sera sample binding to peptide divided by the specific OD450 or cpm of NHS sample binding to peptide, which value is less than 2) | Binding of maternal HIV+ serum to peptide (sera/NHS ratio) [1, 15]: - (specific OD450 or cpm of sera sample binding to peptide divided by the specific OD450 or cpm of NHS sample binding to peptide, which value is less than 2) | Binding of maternal HIV+ serum to peptide (sera/NHS ratio) [1, 16]: - (specific OD450 or cpm of sera sample binding to peptide divided by the specific OD450 or cpm of NHS sample binding to peptide, which value is less than 2) | Binding of maternal HIV+ serum to peptide (sera/NHS ratio) [1, 17]: - (specific OD450 or cpm of sera sample binding to peptide divided by the specific OD450 or cpm of NHS sample binding to peptide, which value is less than 2) | Binding of maternal HIV+ serum to peptide (sera/NHS ratio) [1, 18]: - (specific OD450 or cpm of sera sample binding to peptide divided by the specific OD450 or cpm of NHS sample binding to peptide, which value is less than 2) | Binding of maternal HIV+ serum to peptide (sera/NHS ratio) [1, 19]: - (specific OD450 or cpm of sera sample binding to peptide divided by the specific OD450 or cpm of NHS sample binding to peptide, which value is less than 2) | Binding of maternal HIV+ serum to peptide (sera/NHS ratio) [1, 20]: - (specific OD450 or cpm of sera sample binding to peptide divided by the specific OD450 or cpm of NHS sample binding to peptide, which value is less than 2) | Binding of maternal HIV+ serum to peptide (sera/NHS ratio) [1, 21]: - (specific OD450 or cpm of sera sample binding to peptide divided by the specific OD450 or cpm of NHS sample binding to peptide, which value is less than 2) | Binding of maternal HIV+ serum to peptide (sera/NHS ratio) [1, 22]: - (specific OD450 or cpm of sera sample binding to peptide divided by the specific OD450 or cpm of NHS sample binding to peptide, which value is less than 2) | Number of Non-Transmitters which bound to peptide [2]: 0 | Percent of Non-Transmitters which bound to peptide [2]: 0% | Number of Transmitters which bound to peptide [2]: 0 | Percent of Transmitters which bound to peptide [2]: 0%

VSLKCTDLKNDTNTN [Peptide 97]
Binding of maternal sera to peptide (in words) ([1]; Example 3): No binding | Binding of maternal HIV+ serum to peptide (sera/NHS ratio) [1, 3]: - (specific OD450 or cpm of sera sample binding to peptide divided by the specific OD450 or cpm of NHS sample binding to peptide, which value is less than 2) | Binding of maternal HIV+ serum to peptide (sera/NHS ratio) [1, 4]: - (specific OD450 or cpm of sera sample binding to peptide divided by the specific OD450 or cpm of NHS sample binding to peptide, which value is less than 2) | Binding of maternal HIV+ serum to peptide (sera/NHS ratio) [1, 5]: - (specific OD450 or cpm of sera sample binding to peptide divided by the specific OD450 or cpm of NHS sample binding to peptide, which value is less than 2) | Binding of maternal HIV+ serum to peptide (sera/NHS ratio) [1, 6]: - (specific OD450 or cpm of sera sample binding to peptide divided by the specific OD450 or cpm of NHS sample binding to peptide, which value is less than 2) | Binding of maternal HIV+ serum to peptide (sera/NHS ratio) [1, 7]: - (specific OD450 or cpm of sera sample binding to peptide divided by the specific OD450 or cpm of NHS sample binding to peptide, which value is less than 2) | Binding of maternal HIV+ serum to peptide (sera/NHS ratio) [1, 8]: - (specific OD450 or cpm of sera sample binding to peptide divided by the specific OD450 or cpm of NHS sample binding to peptide, which value is less than 2) | Binding of maternal HIV+ serum to peptide (sera/NHS ratio) [1, 9]: - (specific OD450 or cpm of sera sample binding to peptide divided by the specific OD450 or cpm of NHS sample binding to peptide, which value is less than 2) | Binding of maternal HIV+ serum to peptide (sera/NHS ratio) [1, 10]: - (specific OD450 or cpm of sera sample binding to peptide divided by the specific OD450 or cpm of NHS sample binding to peptide, which value is less than 2) | Binding of maternal HIV+ serum to peptide (sera/NHS ratio) [1, 11]: - (specific OD450 or cpm of sera sample binding to peptide divided by the specific OD450 or cpm of NHS sample binding to peptide, which value is less than 2) | Binding of maternal HIV+ serum to peptide (sera/NHS ratio) [1, 12]: - (specific OD450 or cpm of sera sample binding to peptide divided by the specific OD450 or cpm of NHS sample binding to peptide, which value is less than 2) | Binding of maternal HIV+ serum to peptide (sera/NHS ratio) [1, 13]: - (specific OD450 or cpm of sera sample binding to peptide divided by the specific OD450 or cpm of NHS sample binding to peptide, which value is less than 2) | Binding of maternal HIV+ serum to peptide (sera/NHS ratio) [1, 14]: - (specific OD450 or cpm of sera sample binding to peptide divided by the specific OD450 or cpm of NHS sample binding to peptide, which value is less than 2) | Binding of maternal HIV+ serum to peptide (sera/NHS ratio) [1, 15]: - (specific OD450 or cpm of sera sample binding to peptide divided by the specific OD450 or cpm of NHS sample binding to peptide, which value is less than 2) | Binding of maternal HIV+ serum to peptide (sera/NHS ratio) [1, 16]: - (specific OD450 or cpm of sera sample binding to peptide divided by the specific OD450 or cpm of NHS sample binding to peptide, which value is less than 2) | Binding of maternal HIV+ serum to peptide (sera/NHS ratio) [1, 17]: - (specific OD450 or cpm of sera sample binding to peptide divided by the specific OD450 or cpm of NHS sample binding to peptide, which value is less than 2) | Binding of maternal HIV+ serum to peptide (sera/NHS ratio) [1, 18]: - (specific OD450 or cpm of sera sample binding to peptide divided by the specific OD450 or cpm of NHS sample binding to peptide, which value is less than 2) | Binding of maternal HIV+ serum to peptide (sera/NHS ratio) [1, 19]: - (specific OD450 or cpm of sera sample binding to peptide divided by the specific OD450 or cpm of NHS sample binding to peptide, which value is less than 2) | Binding of maternal HIV+ serum to peptide (sera/NHS ratio) [1, 20]: - (specific OD450 or cpm of sera sample binding to peptide divided by the specific OD450 or cpm of NHS sample binding to peptide, which value is less than 2) | Binding of maternal HIV+ serum to peptide (sera/NHS ratio) [1, 21]: - (specific OD450 or cpm of sera sample binding to peptide divided by the specific OD450 or cpm of NHS sample binding to peptide, which value is less than 2) | Binding of maternal HIV+ serum to peptide (sera/NHS ratio) [1, 22]: - (specific OD450 or cpm of sera sample binding to peptide divided by the specific OD450 or cpm of NHS sample binding to peptide, which value is less than 2) | Number of Non-Transmitters which bound to peptide [2]: 2 | Percent of Non-Transmitters which bound to peptide [2]: 16.7% | Number of Transmitters which bound to peptide [2]: 0 | Percent of Transmitters which bound to peptide [2]: 0%
